Molecular target: T1, HCMV polymerase (Human cytomegalovirus, UniProt P08546)
T1 construct: made in house; host or cells: recombinant baculovirus-infected SF-9 cells
Experiment: HCMV polymerase assay (modified scintillation proximity assay)
Format: biochemical
Conditions: modified SPA assay; compounds diluted in 100% DMSO; 4.5 mM DTT in polymerase buffer
Protocol: The HCMV polymerase assay is performed using a scintillation proximity assay (SPA) as described in several references, such as N. D. Cook, et al., Pharmaceutical Manufacturing International, pages 49-53 (1992); K. Takeuchi, Laboratory Practice, September issue (1992); U.S. Pat. No. 4,568,649 (1986); which are incorporated by reference herein. Reactions are performed in 96-well plates. The assay is conducted in 100 μl volume with 5.4 mM HEPES (pH 7.5), 11.7 mM KCl, 4.5 mM MgCl2, 0.36 mg/ml BSA, and 90 nM ^3H-dTTP. Assays are run with and without CHAPS, (3-[(3-Cholamidopropyl)-dimethylammonio]-1-propane-sulfonate) at a final concentration of 2 mM. HCMV polymerase is diluted in enzyme dilution buffer containing 50% glycerol, 250 mM NaCl, 10 mM HEPES (pH 7.5), 100 μg/ml BSA, and 0.01% sodium azide. The HCMV polymerase, which is expressed in recombinant baculovirus-infected SF-9 cells and purified according to literature procedures, is added at 10% (or 10 μl) of the final reaction volume, i.e., 100 μl. Compounds are diluted in 50% DMSO and 10 μl are added to each well. Control wells contain an equivalent concentration of DMSO. […] Plates are incubated 10 min. at 37 C., then equilibrated to room temperature, and counted on a Packard Topcount. Linear regressions are performed and IC50's are calculated using computer software. […]

T1 sequence (P08546 whole entry): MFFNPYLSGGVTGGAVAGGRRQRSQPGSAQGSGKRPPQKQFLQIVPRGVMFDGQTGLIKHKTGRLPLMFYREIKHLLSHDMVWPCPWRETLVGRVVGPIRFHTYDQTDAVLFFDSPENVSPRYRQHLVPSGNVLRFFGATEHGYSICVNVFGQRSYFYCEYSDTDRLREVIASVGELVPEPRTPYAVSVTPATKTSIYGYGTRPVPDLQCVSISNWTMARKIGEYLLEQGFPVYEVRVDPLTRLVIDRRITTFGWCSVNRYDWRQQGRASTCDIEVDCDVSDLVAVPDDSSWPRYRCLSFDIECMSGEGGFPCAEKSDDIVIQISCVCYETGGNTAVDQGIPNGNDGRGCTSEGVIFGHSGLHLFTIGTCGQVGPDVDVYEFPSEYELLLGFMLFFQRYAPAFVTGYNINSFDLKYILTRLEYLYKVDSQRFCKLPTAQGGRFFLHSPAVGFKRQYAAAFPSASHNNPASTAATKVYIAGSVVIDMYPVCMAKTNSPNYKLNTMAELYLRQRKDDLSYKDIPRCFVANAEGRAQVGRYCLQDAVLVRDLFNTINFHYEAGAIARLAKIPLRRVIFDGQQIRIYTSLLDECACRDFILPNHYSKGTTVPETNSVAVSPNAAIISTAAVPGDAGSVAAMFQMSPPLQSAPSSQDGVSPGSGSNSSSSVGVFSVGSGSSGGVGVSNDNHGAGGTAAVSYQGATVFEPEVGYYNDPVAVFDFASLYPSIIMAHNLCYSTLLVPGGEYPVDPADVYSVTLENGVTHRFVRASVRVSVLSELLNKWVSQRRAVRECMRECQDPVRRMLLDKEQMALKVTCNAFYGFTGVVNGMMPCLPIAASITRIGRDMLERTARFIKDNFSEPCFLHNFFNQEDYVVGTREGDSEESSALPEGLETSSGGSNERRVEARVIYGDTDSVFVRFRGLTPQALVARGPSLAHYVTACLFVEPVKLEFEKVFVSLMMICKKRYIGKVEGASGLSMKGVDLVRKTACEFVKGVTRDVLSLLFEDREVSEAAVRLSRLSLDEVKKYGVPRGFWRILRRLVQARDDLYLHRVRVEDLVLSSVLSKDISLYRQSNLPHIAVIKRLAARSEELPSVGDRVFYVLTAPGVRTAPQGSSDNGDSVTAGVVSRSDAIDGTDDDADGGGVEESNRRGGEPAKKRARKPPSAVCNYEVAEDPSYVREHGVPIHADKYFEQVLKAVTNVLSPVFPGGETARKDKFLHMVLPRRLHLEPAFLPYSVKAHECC

- IC50: 0.06 µM
SMILES: O=C(NCc1ccc(Cl)cc1)c1cn2c3c(cc(CN4CCOCC4)cc3c1=S)OCC2 [Example 1, N-(4-chlorobenzyl)-9-(4-morpholinylmethyl)-7-thioxo-2,3-dihydro-7H-[1,4]oxazino[2,3,4-ij]quinoline-6-carboxamide]
